This is an account of results in US11919856B2, “Compounds” (UCL BUSINESS LTD, priority 2018, dated 2024).

Molecules are shown by their SMILES. pIC50: −log10 of the molar value.

In assay [1] the test system is Z α1-antitrypsin polymer. Particulars: 2 weeks of dosing; Hidvegi et al. Science 2010; cited from earlier work.
Assay [2] concerns the target T1, Z-alpha-1-antitrypsin (Z-A1AT) (Homo sapiens, UniProt P01009, E366K/V237A).
T1 construct: Z-alpha-1-antitrypsin was purified from human plasma; from tissue; host or cells: human plasma of ZZ homozygous donors
Briefly: Inhibition of Z-alpha-1-antitrypsin polymerisation TR-FRET assay. In kind it is biochemical. Particulars: mean, 5 nM Z-A1AT, 72 hours at 37° C. The text has this: The potencies of the compounds of the invention for inhibition of Z-alpha-1-antitrypsin (Z-A1AT) polymerisation can be determined by a time-resolved fluorescence energy transfer (TR-FRET) assay performed on purified Z-A1AT as described herein. […] Mean activity data for the assay described below for compounds 1-4:
Inhibition of Z-Alpha-1-Antitrypsin Polymerisation Assay Protocol
Z-alpha-1-antitrypsin was purified from human plasma of donors homozygous for the Z-A1AT form. The purification was performed according to a published protocol (Lomas et al. Biochemistry 1993; 32:500-508) involving ammonium sulphate precipitation, thiol exchange fractionation, and anion exchange fractionation.
Purified Z-A1AT was diluted to 5 nM in PBS buffer with 0.01% Tween-20 and mixed with different concentrations of inhibitor compounds dissolved in DMSO, in 384-well assay plates. Following incubation for 72 hours at 37° C., the amount of Z-A1AT polymer was detected using a time-resolved fluorescence resonance energy transfer (TR-FRET) assay format, by adding an antibody detection mix to the assay plates. The detection mix contained an A1AT-polymer specific monoclonal antibody (Miranda et al. Hepatology 2010; 52: 1078-1088), Terbium-labelled anti-mouse antibody, a polyclonal rabbit anti-A1AT antibody, and an Alexa488-labelled anti-rabbit antibody. TR-FRET data were normalised to controls (DMSO vehicle control giving 0% inhibition, saturating concentrations of an active compound giving 100% inhibition), and IC50 values were derived by fitting 4-parameter logistic curves to the normalised data.
An antibody-based time-resolved fluorescence resonance energy transfer (TR-FRET) assay was used to monitor the polymerisation of 5 nM Z α1-antitrypsin following incubation with varying concentrations of compounds at 37° C. for 72 hours. This assay used the 2C1 monoclonal antibody that is specific to pathological polymers of α1-antitrypsin (Miranda et al. Hepatology 2010; 52: 1078-1088), a polyclonal antibody that binds to all forms of α1-antitrypsin, an anti-mouse IgG fluorescence donor (Eu-W1024) and an anti-rabbit IgG acceptor (APC).

T1 sequence (P01009 25-418 V237A/E366K): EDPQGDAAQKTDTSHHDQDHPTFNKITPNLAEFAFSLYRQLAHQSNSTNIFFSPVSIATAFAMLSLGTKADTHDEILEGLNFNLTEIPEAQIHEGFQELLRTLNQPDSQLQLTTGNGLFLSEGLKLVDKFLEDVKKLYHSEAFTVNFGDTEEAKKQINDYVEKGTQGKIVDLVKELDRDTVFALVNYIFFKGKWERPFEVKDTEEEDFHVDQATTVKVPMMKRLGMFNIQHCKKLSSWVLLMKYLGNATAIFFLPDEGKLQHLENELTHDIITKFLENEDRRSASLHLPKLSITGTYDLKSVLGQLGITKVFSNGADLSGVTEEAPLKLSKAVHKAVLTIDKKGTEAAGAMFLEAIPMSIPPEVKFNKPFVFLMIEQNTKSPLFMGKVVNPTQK

Take `NC(=O)N1c2ccccc2C=Cc2ccccc21` [Carbamazapine]: the “effects on liver polymer in Z α1-antitrypsin transgenic mice” value in assay [1] is “pronounced effects”.

One may read the pIC50 as the IC50 on a negative log10 scale, so that one unit is a factor of ten. Read a low pIC50 as a large IC50. The compound `CCC[C@@H](NC(=O)c1cccc2c1CC(=O)N2)[C@@H](O)c1cccc(Cl)c1C` [Compound 2, N-((1S,2R)-1-(3-chloro-2-methylphenyl)-1-hydroxypentan-2-yl)-2-oxoindoline-4-carboxamide] had a pIC50 in assay [2] of 8.60.

Consider `CCC[C@@H](NC(=O)c1ccc(F)c2c1CC(=O)N2)[C@@H](O)c1cccc(C#N)c1Cl` [Compound 3, N-((1S,2R)-1-(2-chloro-3-cyanophenyl)-1-hydroxypentan-2-yl)-7-fluoro-2-oxoindoline-4-carboxamide], for which the pIC50 in assay [2] is 8.50.

Compound `CCC[C@@H](NC(=O)c1ccc(F)c2c1CC(=O)N2)[C@@H](O)c1cccc(F)c1Cl` [Compound 4, N-((1S,2R)-1-(2-chloro-3-fluorophenyl)-1-hydroxypentan-2-yl)-7-fluoro-2-oxoindoline-4-carboxamide] had a pIC50 in assay [2] of 8.20.
